Key:
Details in all cases: 72 h
Caco-2 [1] = assay: cell viability relative to DMSO; higher = less toxic
Calu-3 [2] = assay: as above
HepG2 [3] = assay: as above
U2OS [4] = assay: as above
Vero E6 [5] = assay: as above
HepG2 [6] = assay: relative viability EC50 (midpoint between 100% and the lowest measured viability); higher = less toxic
Vero E6 [7] = assay: as above
Caco-2 [8] = assay: drug sensitivity score (DSS) for viability; higher = more toxic; extreme values may be limits of the assay
Calu-3 [9] = assay: as above
HepG2 [10] = assay: as above
U2OS [11] = assay: as above
Vero E6 [12] = assay: as above
Calu-3 [13] = assay: relative viability EC50 (midpoint between 100% and the lowest measured viability); higher = less toxic
U2OS [14] = assay: as above

SMILES	cell viability (Caco-2 [1]; 1 nM)	cell viability (Caco-2 [1]; 10 nM)	cell viability (Caco-2 [1]; 100 nM)	cell viability (Caco-2 [1]; 1000 nM)	cell viability (Caco-2 [1]; 10000 nM)	cell viability (Calu-3 [2]; 1 nM)	cell viability (Calu-3 [2]; 10 nM)	cell viability (Calu-3 [2]; 100 nM)	cell viability (Calu-3 [2]; 1000 nM)	cell viability (Calu-3 [2]; 10000 nM)	cell viability (HepG2 [3]; 1 nM)	cell viability (HepG2 [3]; 10 nM)	cell viability (HepG2 [3]; 100 nM)	cell viability (HepG2 [3]; 1000 nM)	cell viability (HepG2 [3]; 10000 nM)	cell viability (U2OS [4]; 1 nM)	cell viability (U2OS [4]; 10 nM)	cell viability (U2OS [4]; 100 nM)	cell viability (U2OS [4]; 1000 nM)	cell viability (U2OS [4]; 10000 nM)	cell viability (Vero E6 [5]; 1 nM)	cell viability (Vero E6 [5]; 10 nM)	cell viability (Vero E6 [5]; 100 nM)	cell viability (Vero E6 [5]; 1000 nM)	cell viability (Vero E6 [5]; 10000 nM)	relative viability EC50 (HepG2 [6])	relative viability EC50 (Vero E6 [7])	drug sensitivity score (Caco-2 [8])	drug sensitivity score (Calu-3 [9])	drug sensitivity score (HepG2 [10])	drug sensitivity score (U2OS [11])	drug sensitivity score (Vero E6 [12])	relative viability EC50 (Calu-3 [13])	relative viability EC50 (U2OS [14])
COC(=O)Nc1nc2cc(C(=O)c3ccc(F)cc3)ccc2[nH]1 [flubendazole]	93%	96.7%	101%	87.3%	54.6%	94.2%	87.9%	98.8%	97.6%	72.3%	96.8%	95.7%	92.4%	63.4%	40.4%	98.2%	107%	102%	95.4%	54.6%	94.9%	102%	92.4%	79%	41.8%	619 nM	1380 nM	4.3	1.5	7.9	3.1	5.5		
CC(C)(C)c1cc(C(=O)/C=C/c2ccc(C(=O)O)cc2)cc(C(C)(C)C)c1 [CH55]	102%	87.3%	90.8%	93.3%	67%	92%	92.1%	76.9%	87.5%	77.8%	109%	113%	120%	105%	91.9%	98.2%	97.3%	91%	97.7%	64.4%						> 10000 nM		2.4	4.3	0	2		> 10000 nM	
O=C(/C=C\n1cnc(-c2cc(C(F)(F)F)cc(C(F)(F)F)c2)n1)N1CC(F)(F)C1 [KPT-276]	104%	91.2%	88.8%	73.9%	66.2%	97.3%	102%	97.2%	64.1%	68.3%	100%	85.5%	80%	44.4%	32.8%	106%	96%	91.4%	68%	17.3%	93.5%	96.1%	82.3%	69.8%	36.9%	190 nM	611 nM	5.4	6.7	12.8	8.2	8.1		1300 nM
CN1CCN(c2ccc3nc(-c4c(N)c5c(F)cccc5[nH]c4=O)[nH]c3c2)CC1 [dovitinib]	98.4%	101%	87.5%	85.7%	61.8%	93.8%	97.7%	98.6%	93.7%	81.9%	115%	96.8%	102%	60.8%	28.8%	99%	99.5%	93.5%	97.8%	42.3%	97.4%	96.5%	99.6%	63.2%	42.1%	924 nM	794 nM	3.6	0.9	8.7	3.4	7.5	> 10000 nM	2880 nM
CC(C)NC(=O)N1CC[C@H](NC2=Nc3cc(F)ccc3N(CC(F)F)c3ccc(Cl)cc32)C1 [NVS-PAK1-1]	84.8%	120%	90.9%	110%	56.4%	103%	112%	91.9%	90%	44.8%	108%	104%	93.6%	97.3%	93.4%	104%	104%	98.7%	93.4%	51.3%	99.8%	101%	108%	92.3%	31.4%	> 10000 nM	2240 nM	1.7	4.6	0	3.7	5	1820 nM	
COc1ccc(-c2cc(=O)c3c(O)cc(O[C@@H]4O[C@H](CO[C@@H]5O[C@@H](C)[C@H](O)[C@@H](O)[C@H]5O)[C@@H](O)[C@H](O)[C@H]4O)cc3o2)cc1O [diosmin]																													0	0	0	0		
c1ccc(-c2cnn3cc(-c4ccc(OCCN5CCOCC5)cc4)cnc23)cc1 [DMH4]	105%	97.9%	93.6%	96.1%	74.3%	101%	107%	89.6%	114%	85.9%	96.4%	95.1%	98.2%	91.5%	50.7%	102%	101%	99.6%	98.6%	80.8%	97.1%	101%	101%	91.4%	104%		> 10000 nM	1.6	0	4	0.7	0	> 10000 nM	> 10000 nM
Oc1ccc([C@H]2COc3cc(O)ccc3C2)cc1 [equol]						97.2%	111%	99.2%	92.6%	91.2%	94.2%	105%	110%	94.8%	97.3%	98.5%	103%	97.9%	102%	99.6%	98.6%	102%	96.2%	95.5%	96.6%	> 10000 nM	> 10000 nM		0	0	0	0	> 10000 nM	> 10000 nM
